The values below come from patent US5750540A, “1,4-di-substituted piperidine derivatives” (Banyu Pharmaceutical Co., Ltd., priority 1995, dated 1998).

Molecules are shown by their SMILES.

Assay [1] has as its system M1 receptors (vas deferens). The assay is described as follows: Antagonism against M1 receptors in an isolated rabbit vas deferens. The note with it: in vitro, agonist McN A-343, 10 min. The protocol: 1) Tests for antagonism against the M1 receptors in an isolated rabbit vas deferens
These tests were performed according to an ordinary method. A male Japanese albino rabbit (weighing bout 3 kg) was killed by exsanguination from a femoral artery under anesthesia with pentobarbital, and the vasa deferentia were excised. Portions (1 cm long) thereof adjacent to the prostate were used as vas deferens preparations. A preparation was longitudinally suspended in a Magnus tube filled with 20 ml of Krebs-Henseleit nutrient solution [gassed with 95% O2 -5% CO2 and kept at 32° C.; containing […] yohimbine (a2 antagonist)] with an initial tension of 1.0 g. The tension of the preparation was recorded isometrically. After the preparation was equilibrated for 30 minutes, electrical stimuli (0.5 ms, 30 V) were applied thereto by means of a bipolar electrode to induce contractions at intervals of 20 seconds. […] Responses to McN A-343 were expressed as percentages based on the amount of contraction before administration of McN A-343. The antagonistic potency (KB value) of the test compound was determined from the degree of shift of the dose-response curve obtained by treatment with the test compound.

The target of assay [2] is T1, M2 receptors (right atrium) (Rattus norvegicus, UniProt P10980).
T1 construct: the right atrium was excised; from tissue; host or cells: isolated rat right atrium
T1 sequence (P10980 1-466): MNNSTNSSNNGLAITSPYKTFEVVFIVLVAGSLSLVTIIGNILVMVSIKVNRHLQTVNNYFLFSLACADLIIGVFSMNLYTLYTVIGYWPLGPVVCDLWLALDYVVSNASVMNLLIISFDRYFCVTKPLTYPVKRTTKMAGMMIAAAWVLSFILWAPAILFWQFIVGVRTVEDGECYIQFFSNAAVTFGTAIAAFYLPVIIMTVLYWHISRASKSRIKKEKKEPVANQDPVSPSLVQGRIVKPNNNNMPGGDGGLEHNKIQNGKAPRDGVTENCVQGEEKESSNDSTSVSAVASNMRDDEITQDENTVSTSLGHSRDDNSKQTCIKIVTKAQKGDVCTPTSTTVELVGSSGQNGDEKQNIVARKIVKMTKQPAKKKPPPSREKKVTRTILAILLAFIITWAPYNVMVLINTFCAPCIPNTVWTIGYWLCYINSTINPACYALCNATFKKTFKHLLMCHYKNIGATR
The assay can be described thus: Antagonism against M2 receptors in an isolated rat right atrium. The note with it: in vitro, agonist carbachol. As to the method:
2) Tests for antagonism against the M2 receptors in an isolated rat right atrium
These tests were performed according to an ordinary method. A male SD strain rat (weighing 300-500 g) was killed by exsanguination, and the right atrium was excised. This preparation was isometrically suspended in a Magnus tube filled with 20 ml of Krebs-Henseleit nutrient solution (gassed with 95% O2 -5% CO2 and kept at 32° C.) with an initial tension of 0.5 g. The heart rate was recorded with a heart rate counter. After the preparation was equilibrated for 30 minutes, carbachol (10^-9 to 10^-6 M) was cumulatively administered from the lowermost concentration in three-fold increasing doses. Thus, a decrease in heart rate was measured to obtain a dose-response curve for the control experiment. After the preparation was washed with fresh solution to restore the heart rate, a test compound was administered thereto. Ten minutes later, carbachol was cumulatively administered again. Responses to carbachol were expressed as percentages based on the heart rate before administration of carbachol. The antagonistic potency (KB value) of the test compound (i.e., a compound in accordance with the present invention) was determined from the degree of shift of the dose-response curve obtained by treatment with the test compound.

The target of assay [3] is T2, muscarinic M3 receptor (Rattus norvegicus, UniProt P08483). The assay is described as follows: in vivo. Also noted: from tissue; host or cells: living rat, airways. The note with it: iv, read-out: Mydriasis ED50. As to the method: (§1) Tests for antagonism against muscarinic M3 receptor (in vivo)
T2 sequence (P08483 whole entry): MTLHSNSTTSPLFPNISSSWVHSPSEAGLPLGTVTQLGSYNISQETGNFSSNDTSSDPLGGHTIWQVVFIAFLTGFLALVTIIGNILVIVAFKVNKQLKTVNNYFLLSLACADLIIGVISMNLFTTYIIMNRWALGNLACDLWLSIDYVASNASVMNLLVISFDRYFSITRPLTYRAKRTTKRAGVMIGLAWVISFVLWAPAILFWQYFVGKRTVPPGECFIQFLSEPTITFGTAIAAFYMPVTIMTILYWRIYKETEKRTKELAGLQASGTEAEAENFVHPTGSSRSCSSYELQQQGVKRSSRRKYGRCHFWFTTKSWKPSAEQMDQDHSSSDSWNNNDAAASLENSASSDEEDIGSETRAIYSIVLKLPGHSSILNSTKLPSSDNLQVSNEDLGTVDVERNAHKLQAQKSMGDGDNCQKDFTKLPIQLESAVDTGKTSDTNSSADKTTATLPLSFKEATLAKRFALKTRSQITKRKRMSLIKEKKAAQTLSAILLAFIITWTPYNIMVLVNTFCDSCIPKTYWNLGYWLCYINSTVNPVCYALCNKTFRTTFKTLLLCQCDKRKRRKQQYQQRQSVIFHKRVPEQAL
3) Tests for mydriasis in rats
Five- to seven-weeks-old male rats of the Sprague-Dawley strain were anesthetized with pentobarbital (65 mg/kg, i.p.), and a cannula was inserted into the right jugular vein for purposes of drug administration. By using a graduated scale (pulilometer), pupillary responses to drugs were measured to the nearest 0.1 mm at the point of the greatest diameter. […] Responses were expressed as percentages of the maximal increase in pupil diameter induced by administration of atropine (30 μg/kg, i.v.). The ED50 value was calculated from the dose-response curve of the test compound using probit analysis and defined as the drug dose that induced 50% of the maximal response.

Assay [4] has as its target T2, muscarinic M3 receptor. The assay can be described thus: Intravesical bladder pressure in rats. Also noted: from tissue. The note with it: i.v., 25% inhibition of peak intravesical bladder pressure. The format is in vivo. The protocol: as §1
4) Tests for intravesical bladder pressure in rats
These tests were performed according to the method of Maggi et al. (Drug Dev. Res. 10: 157-170, 1987). Briefly, eight- to ten-weeks-old male rats of the Sprague-Dawley strain, weighing 330-370 g, were anesthetized by subcutaneous administration of urethane (1 g/kg) and α-chloralose (50 mg/kg), and the right jugular vein was cannulated for drug administration. The body temperature was kept constant by means of a heating pad maintained at 37° C. Through a midline incision of the abdomen, the urinary bladder was exposed and emptied of urine by the application of a slight manual pressure. A 20-gauge needle was inserted through the apex of the bladder dome by 3-4 mm into its lumen. The needle had previously been connected to a pressure transducer and an infusion pump by means of polyethylene tubing and the whole system filled with saline. After a 30-minutes equilibration period at zero volume, saline was infused (2.8 ml/hr) until a coordinated sustained contraction, reflecting the peak intravesical bladder pressure, occured. The bladder was then emptied manually and allowed to rest for five minutes. PvesP was defined as the difference between the maximum and resting bladder pressures. This procedure was repeated at least five times and the evaluation of a test compound was carried out in the animals in which a stable peak intravesical bladder pressure was recorded. The drug potency (ID25 ) was determined after intravenous administration of the test compound during the rest period. Five minutes after drug administration, the infusion of saline was started to induce micturition contraction and the peak intravesical bladder pressure was recorded. The depression in peak intravesical bladder pressure was expressed as a percent of the control peak intravesical bladder pressure observed before administration of the test compound. The ID25 value, calculated by probit analysis, was defined as the drug dose that inhibited the control peak intravesical bladder pressure by 25%.

As to `CC(C)=CCCN1CCC(NC(=O)C(O)(c2ccccc2)C2CCC2)CC1` (stereo not shown) [Example 1, N-[1-(4-methyl-3-pentenyl)-piperidin-4-yl]-2-cyclobutyl-2-hydroxy-2-phenylacetamide], the Kb (commonly the affinity of an antagonist, worked out from how it opposes an agonist) in assay [1] was found to be 120 nM; in assay [2] it was 1500 nM. Besides, the ED50 (usually the midpoint of the dose-response relation) in assay [3] came out at 1.4 mg/kg. In assay [4], the “Urinating contraction ID25” value was 1.3 mg/kg i.v.
